Assay results reported in patent US11000033B2, “Ketone or oxime compound, and herbicide” (NISSAN CHEMICAL CORPORATION, priority 2014, dated 2021).

Tests used:
Type in all cases: in vivo
Scirpus juncoides = assay: Test Example 1: herbicidal activity, application before weed generation in submerged conditions (symbol B); conditions: application herbicide amount 320 g/ha
Procedure, shortened: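 Weed control was rated three weeks after treatment on a 0–5 scale, from 5% or lower up to 90% or more. Pre-emergence water-surface application of diluted emulsion at a predetermined rate was made on the day of sowing, in flooded (4 cm water) pots containing rice seedlings, kept at 25–30 °C under glass.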

Leptochloa chinensis = assay: Test Example 3: herbicidal effect by foliage application, Wagner pot (symbol D); conditions: application herbicide amount 320 g/ha
Procedure, shortened: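 The compound, formulated as an emulsion and diluted with water to a predetermined rate, is applied uniformly to leaves of two-week-old seedlings growing in submerged alluvial soil at 25–30 °C. Rice is included. Each plant is assessed 3 weeks later using defined criteria.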

Setaria viridis = assay: Test Example 4: herbicidal effect by soil treatment (symbol G); conditions: application herbicide amount 320 g/ha
Procedure, shortened: (§1)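 Seeds were sown in sterilized diluvial soil, covered with about 1.5 cm of soil, and the soil surface was sprayed with a water-diluted emulsion of the compound at a predetermined rate. Plants grew in a greenhouse at 25° C. to 30° C.; effects were scored visually 3 weeks after application.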

Avena fatua [1] = assay: Test Example 4: herbicidal effect by soil treatment (symbol I); conditions: application herbicide amount 320 g/ha
Procedure, shortened: as §1

Amaranthus retroflexus = assay: Test Example 4: herbicidal effect by soil treatment (symbol N); conditions: application herbicide amount 320 g/ha
Procedure, shortened: as §1

Galium spurium [2] = assay: Test Example 4: herbicidal effect by soil treatment (symbol Q); conditions: application herbicide amount 320 g/ha
Procedure, shortened: as §1

soybean = assay: Test Example 4: effect on crop by soil treatment (symbol d); conditions: application herbicide amount 320 g/ha
Procedure, shortened: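 Diluvial soil (sterilized) in boxes; seeds placed spot-wise alongside weed species; ~1.5 cm covering soil. Greenhouse, 25–30° C.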

Digitaria ciliaris = assay: Test Example 5: herbicidal effect by foliage application, plastic box (symbol F); conditions: 320 g/ha, 3 weeks after application
Procedure, shortened: (§2)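 Greenhouse foliar test: seedlings at 14 days, grown 25° C. to 30° C. in sterilized diluvial soil; compound applied as an aqueous dilution of an emulsion; response read 3 weeks after spraying.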

[3] = tested on: Echinochloa crus-galli var. crus-galli; assay: Test Example 5: herbicidal effect by foliage application, plastic box (symbol H); conditions: 320 g/ha, 3 weeks after application
Procedure, shortened: as §2

Avena fatua [4] = assay: Test Example 5: herbicidal effect by foliage application, plastic box (symbol I); conditions: 320 g/ha, 3 weeks after application
Procedure, shortened: as §2

Apera spica-venti = assay: Test Example 5: herbicidal effect by foliage application, plastic box (symbol L); conditions: 320 g/ha, 3 weeks after application
Procedure, shortened: as §2

Abutilon theophrasti = assay: Test Example 5: herbicidal effect by foliage application, plastic box (symbol M); conditions: 320 g/ha, 3 weeks after application
Procedure, shortened: as §2

Chenopodium album = assay: Test Example 5: herbicidal effect by foliage application, plastic box (symbol O); conditions: 320 g/ha, 3 weeks after application
Procedure, shortened: as §2

Stellaria media = assay: Test Example 5: herbicidal effect by foliage application, plastic box (symbol P); conditions: 320 g/ha, 3 weeks after application
Procedure, shortened: as §2

Galium spurium [5] = assay: Test Example 5: herbicidal effect by foliage application, plastic box (symbol Q); conditions: 320 g/ha, 3 weeks after application
Procedure, shortened: as §2

Veronica persica = assay: Test Example 5: herbicidal effect by foliage application, plastic box (symbol R); conditions: 320 g/ha, 3 weeks after application
Procedure, shortened: as §2

beet = assay: Test Example 5: effect on crop by foliage application, plastic box (symbol f); conditions: 320 g/ha, 3 weeks after application
Procedure, shortened: (§3)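 Plants were raised from seed in a greenhouse (25° C. to 30° C.) after sowing in a plastic box of sterilized diluvial soil.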

rapeseed = assay: Test Example 5: effect on crop by foliage application, plastic box (symbol g); conditions: 320 g/ha, 3 weeks after application
Procedure, shortened: as §3

| SMILES | Herbicidal effect grade, B: Scirpus juncoides (Scirpus juncoides) | herbicidal effect on D (Leptochloa chinensis), grade 0-5 (Leptochloa chinensis) | Herbicidal effect grade, G: Setaria viridis (Setaria viridis) | Herbicidal effect grade, I: Avena fatua (Avena fatua [1]) | Herbicidal effect grade, N: Amaranthus retroflexus (Amaranthus retroflexus) | Herbicidal effect grade, Q: Galium spurium (Galium spurium [2]) | Effect on crop grade, d: soybean (soybean) | F: Digitaria ciliaris, herbicidal effect (criteria of Test Example 1) (Digitaria ciliaris) | H: Echinochloa crus-galli var. crus-galli, herbicidal effect (criteria of Test Example 1) [3] | I: Avena fatua, herbicidal effect (criteria of Test Example 1) (Avena fatua [4]) | L: Apera spica-venti, herbicidal effect (criteria of Test Example 1) (Apera spica-venti) | M: Abutilon theophrasti, herbicidal effect (criteria of Test Example 1) (Abutilon theophrasti) | O: Chenopodium album, herbicidal effect (criteria of Test Example 1) (Chenopodium album) | P: Stellaria media, herbicidal effect (criteria of Test Example 1) (Stellaria media) | Q: Galium spurium, herbicidal effect (criteria of Test Example 1) (Galium spurium [5]) | R: Veronica persica, herbicidal effect (criteria of Test Example 1) (Veronica persica) | f: beet, effect on crop (criteria of Test Example 1) (beet) | g: rapeseed, effect on crop (criteria of Test Example 1) (rapeseed) |
| --- | --- | --- | --- | --- | --- | --- | --- | --- | --- | --- | --- | --- | --- | --- | --- | --- | --- | --- |
| CON=C(C)CC1CC(OC(=O)N2CCCC2)=C(c2c(C)cc(C)cc2OC)C1=O (stereo not drawn) [6-110] | 3 (Herbicidal ratio of 40% or higher and lower than 70%) | 5 (Herbicidal ratio of 90% or more (almost completely withered)) | 0 (Herbicidal ratio of 5% or lower (almost no effect)) | 0 (Herbicidal ratio of 5% or lower (almost no effect)) | 0 (Herbicidal ratio of 5% or lower (almost no effect)) | 0 (Herbicidal ratio of 5% or lower (almost no effect)) | 0 (Herbicidal ratio of 5% or lower (almost no effect)) | 5 (Herbicidal ratio of 90% or more (almost completely withered)) | 5 (Herbicidal ratio of 90% or more (almost completely withered)) | 5 (Herbicidal ratio of 90% or more (almost completely withered)) | 5 (Herbicidal ratio of 90% or more (almost completely withered)) | 4 (Herbicidal ratio of 70% or higher and lower than 90%) | 0 (Herbicidal ratio of 5% or lower (almost no effect)) | 1 (Herbicidal ratio of 5% or higher and lower than 20%) | 3 (Herbicidal ratio of 40% or higher and lower than 70%) | 2 (Herbicidal ratio of 20% or higher and lower than 40%) | 0 (Herbicidal ratio of 5% or lower (almost no effect)) | 4 (Herbicidal ratio of 70% or higher and lower than 90%) |
| CON=C(C)CC1CC(O)=C(c2c(F)cc(C)cc2OC)C1=O (stereo not drawn) [6-108] | 3 (Herbicidal ratio of 40% or higher and lower than 70%) | 5 (Herbicidal ratio of 90% or more (almost completely withered)) | 4 (Herbicidal ratio of 70% or higher and lower than 90%) | 3 (Herbicidal ratio of 40% or higher and lower than 70%) | 4 (Herbicidal ratio of 70% or higher and lower than 90%) | 3 (Herbicidal ratio of 40% or higher and lower than 70%) | 0 (Herbicidal ratio of 5% or lower (almost no effect)) | 5 (Herbicidal ratio of 90% or more (almost completely withered)) | 5 (Herbicidal ratio of 90% or more (almost completely withered)) | 5 (Herbicidal ratio of 90% or more (almost completely withered)) | 5 (Herbicidal ratio of 90% or more (almost completely withered)) | 5 (Herbicidal ratio of 90% or more (almost completely withered)) | 2 (Herbicidal ratio of 20% or higher and lower than 40%) | 3 (Herbicidal ratio of 40% or higher and lower than 70%) | 3 (Herbicidal ratio of 40% or higher and lower than 70%) | 2 (Herbicidal ratio of 20% or higher and lower than 40%) | 0 (Herbicidal ratio of 5% or lower (almost no effect)) | 5 (Herbicidal ratio of 90% or more (almost completely withered)) |
